Laboratory results published in ChEMBL document CHEMBL5241111, “Non-steroidal anti-inflammatory drugs: recent advances in the use of synthetic COX-2 inhibitors” (RSC Med Chem, 2022).
Converted amounts (≈) assume the structure as drawn. One block for each compound: values may come before it.

How the values were obtained:
[1] = molecular target: T1, Prostaglandin G/H synthase 2 (Homo sapiens, UniProt P35354); test: Inhibition of human recombinant COX-2 by enzyme immunoassay
T1 sequence (P35354 whole entry): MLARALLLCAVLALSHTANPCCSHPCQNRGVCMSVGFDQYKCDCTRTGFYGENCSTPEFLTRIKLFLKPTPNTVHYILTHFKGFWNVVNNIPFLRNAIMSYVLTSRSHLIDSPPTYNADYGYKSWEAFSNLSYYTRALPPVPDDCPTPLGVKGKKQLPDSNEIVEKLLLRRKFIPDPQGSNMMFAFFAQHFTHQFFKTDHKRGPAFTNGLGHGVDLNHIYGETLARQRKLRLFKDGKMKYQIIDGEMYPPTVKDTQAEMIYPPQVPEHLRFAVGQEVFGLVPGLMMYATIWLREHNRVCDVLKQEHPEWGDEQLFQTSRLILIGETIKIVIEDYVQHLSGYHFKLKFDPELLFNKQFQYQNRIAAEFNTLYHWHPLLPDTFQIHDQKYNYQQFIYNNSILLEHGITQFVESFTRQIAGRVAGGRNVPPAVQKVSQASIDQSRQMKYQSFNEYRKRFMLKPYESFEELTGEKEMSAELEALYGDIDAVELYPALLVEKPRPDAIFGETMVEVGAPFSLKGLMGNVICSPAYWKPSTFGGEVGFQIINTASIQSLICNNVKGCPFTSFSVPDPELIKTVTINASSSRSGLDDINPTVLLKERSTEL

Rattus norvegicus [2] = test: Antiinflammatory activity against rat model of carrageenan induced paw edema assessed as reduction in PGE2 level in plasma at 50 mg/kg, po pretreated for 1 hr followed by carrageenan addition and measured after 6 hrs by ELISA relative to control; type: functional; details: time 7 hrs
Rattus norvegicus [3] = test: Antiinflammatory activity against rat model of carrageenan induced paw edema assessed as inhibition of edema at 50 mg/kg, po pretreated for 1 hr followed by carrageenan addition and measured after 1 to 6 hrs relative to control; type: functional; details: time 2-7 hrs
Homo sapiens [4] = species on record: Homo sapiens; test: Potency index, ratio of ibuprofen IC50 to test compound IC50 for inhibition of ROS production in human blood; type: functional
Homo sapiens [5] = species on record: Homo sapiens; test: Inhibition of ROS production in human blood; type: functional
Homo sapiens [6] = species on record: Homo sapiens; test: Inhibition of ROS production in human blood at 25 ug/ml relative to control; type: functional
[7] = molecular target: T2, Prostaglandin G/H synthase 2 (Homo sapiens) (UniProt P35354); test: Potency index, ratio of celecoxib IC50 to test compound IC50 for inhibition of COX-2 (unknown origin) by colorimetric assay
T2 sequence (whole entry): T1 sequence (P35354 whole entry)

[8] = molecular target: T1, Prostaglandin G/H synthase 2; test: Inhibition of COX-2 (unknown origin) by colorimetric assay
MCF7 = test: cells; details: Homo sapiens, MCF7, 48 h
Albumin = Albumin (Bos taurus, UniProt P02769); test: Inhibition of bovine serum albumin denaturation incubated for 15 mins
A549 = test: cells; details: Homo sapiens, A549, 48 h
HCT-116 = test: cells; details: Homo sapiens, HCT-116, 48 h
Rattus norvegicus [9] = test: Antiinflammatory activity against rat model of carrageenan induced paw edema assessed as reduction in IL-6 level in plasma at 50 mg/kg, po pretreated for 1 hr followed by carrageenan addition and measured after 6 hrs by ELISA relative to control; type: functional; details: time 7 hrs
Rattus norvegicus [10] = test: Antiinflammatory activity against rat model of carrageenan induced paw edema assessed as reduction in TNFalpha level in plasma at 50 mg/kg, po pretreated for 1 hr followed by carrageenan addition and measured after 6 hrs by ELISA relative to control; type: functional; details: time 7 hrs
Rattus norvegicus [11] = test: Antiinflammatory activity against rat model of carrageenan induced paw edema assessed as inhibition of edema measured after 1 to 6 hrs relative to control; type: functional; details: time 1-6 hrs

Sequence of Albumin (P02769 whole entry): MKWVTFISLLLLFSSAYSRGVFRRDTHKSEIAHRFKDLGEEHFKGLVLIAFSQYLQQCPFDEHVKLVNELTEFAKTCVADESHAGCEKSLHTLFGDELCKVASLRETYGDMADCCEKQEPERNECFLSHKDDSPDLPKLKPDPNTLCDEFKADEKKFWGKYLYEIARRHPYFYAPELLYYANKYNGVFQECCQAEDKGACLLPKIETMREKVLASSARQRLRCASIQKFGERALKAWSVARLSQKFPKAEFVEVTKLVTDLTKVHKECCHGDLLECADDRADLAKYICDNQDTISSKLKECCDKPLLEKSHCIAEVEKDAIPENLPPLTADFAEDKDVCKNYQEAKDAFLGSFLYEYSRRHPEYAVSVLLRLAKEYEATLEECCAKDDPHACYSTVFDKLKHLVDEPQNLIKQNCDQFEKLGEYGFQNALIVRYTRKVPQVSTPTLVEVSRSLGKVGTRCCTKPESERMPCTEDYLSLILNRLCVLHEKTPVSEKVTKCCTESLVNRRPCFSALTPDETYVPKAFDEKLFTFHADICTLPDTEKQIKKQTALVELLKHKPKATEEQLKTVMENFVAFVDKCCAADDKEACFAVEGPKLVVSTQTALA

SMILES: COc1cc(/C=c2\sc3nc(C45CC6CC(CC(C6)C4)C5)nn3c2=O)ccc1O
IC50 [1]: 50 µM

SMILES: COc1cc(-c2cc(-c3cccc(-n4cnnn4)c3)no2)cc(OC)c1OC
inhibition in vivo at 50 mg/kg (Rattus norvegicus [2]): 81%
inhibition in vivo at 50 mg/kg (Rattus norvegicus [3]): 29.2%

SMILES: CC(C)Cc1ccc(C(C)C(=O)O)cc1 (stereo not drawn) [IBUPROFEN]
IC50 (Homo sapiens [5]): 11.2 µg/mL (≈ 54.3 µM)

SMILES: CCOP(=O)(OCC)C(NC(=O)c1cc(-c2cccc3ccccc23)n(-c2ccc(F)cc2)n1)c1ccccc1 (stereo not drawn)
IC50 (MCF7): 4.37 µM

SMILES: O=c1/c(=C/c2cccc(O)c2)sc2nc(C34CC5CC(CC(C5)C3)C4)nn12
IC50 [1]: 50 µM

SMILES: COc1cc(C2CC(c3cccc(-n4cnnn4)c3)=NN2C(C)=O)cc(OC)c1OC (stereo not drawn)
inhibition in vivo at 50 mg/kg (Rattus norvegicus [2]): 81%
inhibition in vivo at 50 mg/kg (Rattus norvegicus [3]): 29.2%
inhibition in vivo at 50 mg/kg (Rattus norvegicus [9]): 61.6%
inhibition in vivo at 50 mg/kg (Rattus norvegicus [10]): 55.4%

SMILES: CS(=O)(=O)c1ccc(-c2cc(-c3ccc(F)cc3)n(-c3ccc(S(N)(=O)=O)cc3)n2)cc1
inhibition (INH) (Rattus norvegicus [11]): 42.1%

Second part, led by results:

IC50 (Homo sapiens [5]): 1.42 µg/mL (≈ 6.63 µM)
SMILES: Nc1cccc(OC(=O)c2ccncc2)c1
Ratio IC50 (Homo sapiens [4]): 8
inhibition in vivo at 25 µg/mL (Homo sapiens [6]): 95.9%

Ratio IC50 [7]: 12
IC50 [8]: 0.17 µM
SMILES: CCCCNc1cc(-c2n[nH]c(=S)n2-c2ccc(Br)cc2)cc(S(N)(=O)=O)c1Oc1ccccc1

IC50 (Homo sapiens [5]): 3.7 µg/mL (≈ 13 µM)
SMILES: CCCC(=O)Nc1ccc(OC(=O)c2ccncc2)cc1
inhibition in vivo at 25 µg/mL (Homo sapiens [6]): 85.4%

IC50 (Albumin): 43.5 µM
SMILES: COc1ccc(C2=NN(C(N)=O)C(c3cn(-c4ccccc4)nc3-c3ccccc3)C2)cc1 (stereo not drawn)

Ratio IC50 [7]: 12
IC50 [8]: 0.32 µM
SMILES: CCCCNc1cc(C(=O)n2nc(C)cc2-c2ccccc2)cc(S(N)(=O)=O)c1Oc1ccccc1

IC50 (A549): 6.43 µM
IC50 (HCT-116): 6.43 µM
SMILES: CCOc1ccc2nc(NC(=O)CSc3nnc(Cc4c[nH]c5ccccc45)o3)sc2c1
